Test results published in ChEMBL document CHEMBL4699634, “Series of Novel and Highly Potent Cyclic Peptide PCSK9 Inhibitors Derived from an mRNA Display Screen and Optimized via Structure-Based Design” (J Med Chem, 2020).

Assays:
[1] = target: Proprotein convertase subtilisin/kexin type 9 (Homo sapiens, UniProt Q8NBP7); assay: Inhibition of AlexaFluor647-tagged cyclic peptide binding to avi-tagged-biotinylated human PCSK9 measured after 2 hrs by Lance Streptavidin Europium based FRET assay
[2] = Cytotoxicity against Wistar rat isolated peritoneal cells assessed as reduction in cell viability up to 60 uM measured after 30 mins; type: cell-based; conditions: peritoneal macrophage cell, 0.5 h
[3] = Induction of mast cell degranulation in Wistar rat isolated peritoneal cells assessed as effect on histamine release measured after 30 mins; type: tissue-based
PCSK9/LDLR = PCSK9/LDLR (Homo sapiens, UniProt Q8NBP7); assay: Inhibition of avi-tagged-biotinylated human PCSK9 interaction with His-tagged human LDLR EGFa domain by LANCE Ulight Streptavidin based TR-FRET assay; type: protein assay
PCSK9/LDLR, sequence (Q8NBP7 31-152 limits assumed): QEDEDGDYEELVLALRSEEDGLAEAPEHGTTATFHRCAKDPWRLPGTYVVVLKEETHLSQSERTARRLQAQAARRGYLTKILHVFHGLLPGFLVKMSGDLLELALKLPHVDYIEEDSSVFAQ
PCSK9/LDLR, sequence (Q8NBP7 153-692 limits assumed): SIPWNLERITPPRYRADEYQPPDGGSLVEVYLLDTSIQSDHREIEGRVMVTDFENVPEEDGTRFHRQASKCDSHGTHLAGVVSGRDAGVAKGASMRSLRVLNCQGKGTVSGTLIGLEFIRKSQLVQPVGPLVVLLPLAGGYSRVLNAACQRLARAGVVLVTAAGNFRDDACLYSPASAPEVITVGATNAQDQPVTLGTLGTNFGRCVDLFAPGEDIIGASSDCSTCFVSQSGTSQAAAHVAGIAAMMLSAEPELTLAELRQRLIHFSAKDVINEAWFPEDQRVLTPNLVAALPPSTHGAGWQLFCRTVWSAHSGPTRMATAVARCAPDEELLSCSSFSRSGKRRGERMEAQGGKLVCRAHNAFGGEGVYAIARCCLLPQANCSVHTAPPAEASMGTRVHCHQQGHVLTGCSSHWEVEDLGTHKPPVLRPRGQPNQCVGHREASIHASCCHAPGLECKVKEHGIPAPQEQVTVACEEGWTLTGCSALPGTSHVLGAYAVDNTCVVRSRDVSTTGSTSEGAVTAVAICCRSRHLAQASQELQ
PCSK9/LDLR, sequence (P01130 22-860 partner limits assumed): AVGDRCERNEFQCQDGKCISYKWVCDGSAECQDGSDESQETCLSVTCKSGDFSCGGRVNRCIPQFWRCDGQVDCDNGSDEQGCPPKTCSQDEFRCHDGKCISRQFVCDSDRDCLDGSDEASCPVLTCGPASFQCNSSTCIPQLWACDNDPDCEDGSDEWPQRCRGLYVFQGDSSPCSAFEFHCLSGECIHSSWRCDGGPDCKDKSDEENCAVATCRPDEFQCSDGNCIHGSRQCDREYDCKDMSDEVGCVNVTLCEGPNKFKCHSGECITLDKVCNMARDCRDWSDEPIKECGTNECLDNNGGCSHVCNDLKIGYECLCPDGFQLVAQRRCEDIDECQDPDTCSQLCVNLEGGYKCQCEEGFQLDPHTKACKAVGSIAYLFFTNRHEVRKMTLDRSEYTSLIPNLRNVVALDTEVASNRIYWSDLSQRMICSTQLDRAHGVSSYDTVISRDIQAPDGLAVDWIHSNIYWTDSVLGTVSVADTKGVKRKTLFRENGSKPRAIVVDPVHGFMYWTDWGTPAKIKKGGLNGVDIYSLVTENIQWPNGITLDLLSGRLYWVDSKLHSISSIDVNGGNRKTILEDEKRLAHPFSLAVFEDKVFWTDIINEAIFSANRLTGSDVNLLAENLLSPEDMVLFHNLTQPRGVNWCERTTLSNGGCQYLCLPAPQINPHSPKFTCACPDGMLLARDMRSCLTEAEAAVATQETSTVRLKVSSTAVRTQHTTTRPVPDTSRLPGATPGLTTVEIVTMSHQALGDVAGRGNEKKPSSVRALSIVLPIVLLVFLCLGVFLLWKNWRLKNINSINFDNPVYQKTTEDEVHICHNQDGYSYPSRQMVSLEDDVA

[4] = Rattus norvegicus, Wistar, Mast cell, 0.5 h, read-out: EC50

Proprotein convertase subtilisin/kexin type 9, sequence (Q8NBP7 31-152 limits assumed): as the sequence (Q8NBP7 31-152 limits assumed) above
Proprotein convertase subtilisin/kexin type 9, sequence (Q8NBP7 153-692 limits assumed): as the sequence (Q8NBP7 153-692 limits assumed) above

Compound | Ki [1] | EC50 [3, 4] | Ki (PCSK9/LDLR) | Activity [2] | EC50 ([3]; mast cell)
COc1ccc(C[C@@H]2NC(=O)[C@H]([C@@H](C)O)NC(=O)[C@@H]3CCCC(=O)NCc4cccc(c4)C[C@H](NC(=O)[C@@H](C)NC(=O)[C@H](C)NC(=O)CCSCc4cccc(c4)CSCCNC(=O)[C@]4(C)CCCN4C2=O)C(=O)N[C@@H](Cc2c[nH]c4ccc(F)cc24)C(=O)N3)cc1 | 44.2 nM | – | – | – | –
COc1ccc(C[C@@H]2NC(=O)[C@H](Cc3cnc[nH]3)NC(=O)[C@H](CC(=O)O)NC(=O)[C@H](Cc3c[nH]c4ccc(F)cc34)NC(=O)[C@H](Cc3c[nH]c4ccc(F)cc34)NC(=O)[C@@H](C)NC(=O)[C@H](CNC(=O)COCCOCCN)NC(=O)CCSCc3cccc(c3)CSCCNC(=O)[C@]3(C)CCCN3C2=O)cc1 | 8.2 nM | – | – | Non-Toxic | Non-Toxic
COc1ccc(C[C@@H]2NC(=O)[C@H]([C@@H](C)O)NC(=O)[C@@H]3CCCCC(=O)NCc4ccc(cc4)C[C@H](NC(=O)[C@@H](C)NC(=O)[C@H](C)NC(=O)CCSCc4cccc(c4)CSCCNC(=O)[C@]4(C)CCCN4C2=O)C(=O)N[C@@H](Cc2c[nH]c4ccc(F)cc24)C(=O)N3)cc1 | 175 nM | – | – | – | –
COc1ccc(C[C@@H]2NC(=O)[C@H]([C@@H](C)O)NC(=O)[C@@H]3CC(=O)NCc4cccc(c4)C[C@H](NC(=O)[C@@H](C)NC(=O)[C@H](C)NC(=O)CCSCc4cccc(c4)CSCCNC(=O)[C@]4(C)CCCN4C2=O)C(=O)N[C@@H](Cc2c[nH]c4ccc(F)cc24)C(=O)N3)cc1 | 285 nM | – | – | – | –
C[C@H]1NC(=O)[C@H](CCC(=O)O)NC(=O)CCSCc2cccc(c2)CSCCNC(=O)[C@]2(C)CCCN2C(=O)[C@H](Cc2ccc(O)cc2)NC(=O)[C@H](Cc2cnc[nH]2)NC(=O)[C@H](CC(=O)O)NC(=O)[C@H](Cc2c[nH]c3ccc(F)cc23)NC(=O)[C@H](Cc2c[nH]c3ccc(F)cc23)NC1=O | – | 1000 nM | 202 nM | Non-Toxic | –
COc1ccc(C[C@@H]2NC(=O)[C@H](Cc3cnc[nH]3)NC(=O)[C@H](CC(=O)O)NC(=O)[C@H](Cc3c[nH]c4ccc(F)cc34)NC(=O)[C@H](Cc3c[nH]c4ccc(F)cc34)NC(=O)[C@@H](C)NC(=O)[C@H](CCCCO)NC(=O)CCSCc3cccc(c3)CSCCNC(=O)[C@]3(C)CCCN3C2=O)cc1 | 39 nM | – | 78.9 nM | Non-Toxic | Non-Toxic

The next lines start with results.

Ki [1] | EC50 [3, 4] | Ki (PCSK9/LDLR) | Compound | Activity [2] | EC50 ([3]; mast cell)
4 nM | – | – | COc1ccc(C[C@@H]2NC(=O)[C@H]([C@@H](C)O)NC(=O)[C@@H]3CCCCC(=O)NCc4cccc(c4)C[C@H](NC(=O)[C@@H](C)NC(=O)[C@H](C)NC(=O)CCSCc4cccc(c4)CSCCNC(=O)[C@]4(C)CCCN4C2=O)C(=O)N[C@@H](Cc2c[nH]c4ccc(F)cc24)C(=O)N3)cc1 | – | –
4.2 nM | 10000 nM | – | COc1ccc(C[C@@H]2NC(=O)[C@H](Cc3cnc[nH]3)NC(=O)[C@H](CC(=O)O)NC(=O)[C@H](Cc3c[nH]c4ccc(F)cc34)NC(=O)[C@H](Cc3c[nH]c4ccc(F)cc34)NC(=O)[C@@H](C)NC(=O)[C@H](CCCCN(C)C)NC(=O)CCSCc3cccc(c3)CSCCNC(=O)[C@]3(C)CCCN3C2=O)cc1 | Non-Toxic | –
2.7 nM | – | 43.5 nM | CCC[C@H]1NC(=O)[C@H](CCCCN)NC(=O)CCSCc2cccc(c2)CSCCNC(=O)[C@]2(C)CCCN2C(=O)[C@H](Cc2ccc(O)cc2)NC(=O)[C@H](Cc2cnc[nH]2)NC(=O)[C@H](CC(=O)O)NC(=O)[C@H](Cc2c[nH]c3ccc(F)cc23)NC(=O)[C@H](Cc2c[nH]c3ccc(F)cc23)NC1=O | – | –
2.8 nM | – | – | COc1ccc(C[C@@H]2NC(=O)[C@H]([C@@H](C)OC)NC(=O)[C@@H]3CCC(=O)NCc4cccc(c4)C[C@H](NC(=O)[C@@H](C)NC(=O)[C@H](C)NC(=O)CCSCc4cccc(c4)CSCCNC(=O)[C@]4(C)CCCN4C2=O)C(=O)NC(Cc2ccnc4ccc(F)cc24)C(=O)N3C)cc1 (stereo not given in full) | – | –
